Numbering of substitutions follows the chain as printed. In names and notes the source's numbering stands. Like-named read-outs stand apart in the source and are kept apart here.

The record followed here is patent US20050158818A1, “Cephalosporin C acylases” (ANTIBIOTICOS S.p.A., priority 2004, published 2005).

Holding throughout (type): biochemical
Data set [1] deals with HisVAC cephalosporin C acylase (Pseudomonas N176 derived, parent Seq. ID #1) variant A215Y. Kind of data set: Product inhibition of mutant A215Y. The procedure: (§1) Kinetics parameters of the mutants and HisVAC acylase were determined measuring the hydrolysis of cephalosporin C or glutaryl 7-ACA in 0.1 M phosphate buffer solution, pH 8.0 at 37° C. (then converted in units at 25° C.). The amount of 7-ACA is determined spectrophotometrically, using a standard curve, measuring the yellow intensity at 415 nm (Schiff base), resulting upon reaction with p-dimethylaminobenzaldehyde, using modified Bulasingham method (Biochem. Biophys. Acta 276, 250, 1972).

Data set [2] deals with HisVAC cephalosporin C acylase (Pseudomonas N176 derived, parent Seq. ID #1) variant A215F. Kind of data set: Product inhibition of mutant A215F. The procedure: as §1
Data set [3] concerns HisVAC cephalosporin C acylase (Pseudomonas N176 derived, parent Seq. ID #1) variant A215E. The experiment in a line: Hydrolysis kinetics of mutant A215E. Particulars: for Km: 0.1 M phosphate; for Km / Vmax: pH 8.0, 37° C.; for Vmax: converted in units at 25° C. The procedure:
(§2) 1. Site-Directed Mutagenesis
as §1
(§3) One acylase unit is the amount of enzyme (in solution or immobilized) which, under the assay conditions, produces one micromole of 7-ACA/minute.

Data set [4] has as its system HisVAC cephalosporin C acylase (Pseudomonas N176 derived, parent Seq. ID #1) variant A215V. The experiment in a line: Hydrolysis kinetics of mutant A215V. The following applies: for Km: 0.1 M phosphate; for Km / Vmax: pH 8.0, 37° C.; for Vmax: converted in units at 25° C.; for Inhibition after: substrate concentration after which inhibition occurs. The procedure: as §2, §1, §3

Data set [5] has as its system HisVAC cephalosporin C acylase (Pseudomonas N176 derived, parent Seq. ID #1) variant H296S. The experiment in a line: Hydrolysis kinetics of mutant H296S. The following applies: for Km: 0.1 M phosphate; for Km / Vmax: pH 8.0, 37° C.; for Vmax: converted in units at 25° C.; for Inhibition after: substrate concentration after which inhibition occurs. The procedure:
as §2, §1, §3

In data set [6] the test system is HisVAC cephalosporin C acylase, wild-type (designed on Pseudomonas N176 acylase, Phe270, C-terminal LEHHHHHH), Seq. ID #1. Kind of data set: Hydrolysis kinetics of wild-type HisVAC acylase. Particulars: for Km: 0.1 M phosphate; for Km / Vmax: pH 8.0, 37° C.; for Vmax: converted in units at 25° C.; for Inhibition after: substrate concentration after which inhibition occurs. The procedure: Said sequence was introduced in order to make the subsequent chromatographic purification easier, using pET24 plasmid as the cloning and expression vector. This plasmid is resistant to kanamycin and is able to insert a “His-Tag sequence” at the C-terminus of the protein and a “T7-Tag sequence” at the N-terminus.
as §1, §3

Data set [7] relates to HisVAC cephalosporin C acylase (Pseudomonas N176 derived, parent Seq. ID #1) variant H296N. The experiment in a line: Hydrolysis kinetics of mutant H296N. The following applies: for Km: 0.1 M phosphate; for Km / Vmax: pH 8.0, 37° C.; for Vmax: converted in units at 25° C.; for Inhibition after: substrate concentration after which inhibition occurs. The procedure: as §2, §1, §3

For data set [8], the system named is HisVAC cephalosporin C acylase (Pseudomonas N176 derived, parent Seq. ID #1) variant A215L. The experiment in a line: Hydrolysis kinetics of mutant A215L. The following applies: for Km: 0.1 M phosphate; for Km / Vmax: pH 8.0, 37° C.; for Vmax: converted in units at 25° C.; for Inhibition after: substrate concentration after which inhibition occurs. The procedure:
as §2, §1, §3

Data set [9] deals with HisVAC cephalosporin C acylase (Pseudomonas N176 derived, parent Seq. ID #1) variant H296T. Kind of data set: Hydrolysis kinetics of mutant H296T. Particulars: for Km: 0.1 M phosphate; for Km / Vmax: pH 8.0, 37° C.; for Vmax: converted in units at 25° C.; for Inhibition after: substrate concentration after which inhibition occurs. The procedure:
as §2, §1, §3

Data set [10] deals with HisVAC cephalosporin C acylase (Pseudomonas N176 derived, parent Seq. ID #1) variant A215F. Kind of data set: Hydrolysis kinetics of mutant A215F. The following applies: for Km: 0.1 M phosphate; for Km / Vmax: pH 8.0, 37° C.; for Vmax: converted in units at 25° C. The procedure: as §2, §1, §3
Data set [11] relates to HisVAC cephalosporin C acylase (Pseudomonas N176 derived, parent Seq. ID #1) variant A215Y. The experiment in a line: Hydrolysis kinetics of mutant A215Y. Particulars: for Km: 0.1 M phosphate; for Km / Vmax: pH 8.0, 37° C.; for Vmax: converted in units at 25° C.; for Inhibition after: substrate concentration after which inhibition occurs. The procedure:
as §2, §1, §3

Data set [12] can be described thus: Acylase kinetics, hydrolysis of glutaryl 7-ACA (7-ACA determined at 415 nm with p-dimethylaminobenzaldehyde). The following applies: substrate Gl-7-ACA; for Km: 0.1 M phosphate buffer pH 8.0, 37° C.; for Vmax (U/mg): 0.1 M phosphate buffer pH 8.0, 37° C. (converted in units at 25° C.); for Inhibition after: substrate concentration after which inhibition is seen. The procedure:
as §1, §3

Data set [13] in a line: Acylase kinetics, hydrolysis of cephalosporin C (7-ACA determined at 415 nm with p-dimethylaminobenzaldehyde). Particulars: substrate Cef C; for Km: 0.1 M phosphate buffer pH 8.0, 37° C.; for Vmax (U/mg): 0.1 M phosphate buffer pH 8.0, 37° C. (converted in units at 25° C.); for Inhibition after: substrate concentration after which inhibition is seen. The procedure: as §1, §3

Where [14] appears, read: substrate Gl-7-ACA, read-out: Ki.
Where [15] appears, read: substrate concentration after which inhibition occurs.

For the molecule `CC(=O)OCC1=C(C(=O)O)N2C(=O)[C@@H](N)[C@H]2SC1` [7-ACA, 7-amino-cephalosporanic acid], the Ki (as a rule, a dissociation constant, usually derived from enzyme kinetics or from competition with a known ligand) in [1] (setting [14]) was determined as 11.3 mM; in [2] (substrate Gl-7-ACA), 4.7 mM.

Consider `CC(=O)OCC1=C(C(=O)O)N2C(=O)[C@@H](NC(=O)CCC[C@@H](N)C(=O)O)[C@H]2SC1` [Cef C, cephalosporin C], for which the Km – broadly, the concentration of substrate that gives half-maximal velocity – worked out at 3.2 mM in data set [3]; 8.3 mM in data set [4]; 7.7 mM in data set [5]; 8.2 mM in [6]; 5.2 mM in data set [7]; 9.5 mM in [8]. Besides, the Km in [9] was determined as 4.8 mM; in data set [10], 7.7 mM; in data set [11], 6.9 mM. The Vmax stood at 0.16 U/mg in data set [3]; 0.78 U/mg in data set [4]; 0.63 U/mg in data set [5]; 0.23 U/mg in data set [6]; 0.27 U/mg in data set [7]; 0.75 U/mg in data set [8]. The figures for the Vmax in data set [9], in data set [10] and in [11] were 0.2 U/mg, 0.21 U/mg and 1.8 U/mg, respectively. For the same molecule, the Inhibition after was 50 mM in data set [4]; 25 mM in data set [5]; 50 mM in data set [6]; 50 mM in data set [7]; 12.5 mM in data set [8]; 60 mM in data set [9]. The Inhibition after in data set [11] turned out to be 25 mM.

For the molecule `CC(=O)OCC1=C(C(=O)O)N2C(=O)[C@@H](NC(=O)CCCC(=O)O)[C@H]2SC1` [Gl-7-ACA, glutaryl-7-ACA], the Km turned out to be 1 mM in data set [3]; 1.2 mM in data set [4]; 0.7 mM in data set [5]; 1.6 mM in data set [6]; 2.8 mM in [7]; 1.7 mM in data set [8]. Further, the Michaelis constant (Km) was 2 mM in data set [9], 0.85 mM in data set [10] and 1.7 mM in [11]. Further, the Vmax in data set [3] worked out at 2 U/mg; in data set [4], 12.5 U/mg; in data set [5], 2.0 U/mg; in data set [6], 24.2 U/mg; in [7], 4.3 U/mg; in data set [8], 6.2 U/mg. The Vmax amounted to 0.67 U/mg in [9], 3.3 U/mg in data set [10] and 16 U/mg in data set [11]. Besides, the Inhibition after in [3] (setting [15]) stood at 25 mM; in [4], 12.5 mM; in data set [5], 25 mM; in data set [6], 12.5 mM; in [7] it was 50 mM; in data set [8], 12.5 mM. The Inhibition after turned out to be 50 mM in [9], 50 mM in [10] (setting [15]) and 12.5 mM in data set [11].

With `O=C(O)CCCC(=O)O` [Glutaric Acid], the Ki was found to be 6.1 mM in data set [1] (setting [14]) and 2.1 mM in data set [2] (substrate Gl-7-ACA).

In the case of `N[C@H](CCCC(=O)O)C(=O)O` [α-Aminoadipic], the Ki result in data set [1] (substrate Cef C) was “no inhibition”; in [2] (substrate Cef C), 85.2 mM.

B1: H296F: HisVAC mutant, histidine 296 replaced with Phe (protein)
chain: MTMAANTDRAVLQAALPPLSGSLPIPGLSASVRVRRDAWGIPHIKASGEADAYRALGFVHSQDRLFQMELTRRKALGRAAEWLGAEAAEADILVRRLGMEKVCRRDFEALGVEAKDMLRAYVAGVNAFLASGAPLPVEYGLLGAEPEPWEPWHSIAVMRRLGLLMGSVWFKLWRMLALPVVGAANALKLRYDDGGRDLLCIPPGAEADRLEADLATLRPAVDALLKAMGGDASDAAGGGSNNWAVAPGRTATGRPILAGDPHRVFEIPGFYAQHHLACDRFDMIGLTVPGVPGFPFFAHNGKVAYCVTHAFMDIHDLYLEQFAGEGRTARFGNDFEPVAWSRDRIAVRGGADREFDIVETRHGPVIAGDPRDGAALTLRSVQFAETDLSFDCLTRMPGASTVAQLYDATRGWGLIDHNLVAGDVAGSIGHLVRARVPSRPRENGWLPVPGWSGEHEWRGWIPHEAMPRVIDPPGGIIVTANNRVVADDHPDYLCTDCHPPYRAERIMKRLVANPAFAVDDAAAIHADTLSPHVGLLRRRLEALGARDDSAAEGLRQMLVAWDGRMDAASEVASAYNAFRRALTRLVTDRSGLEQAISHPFAAVAPGVSPQGQVWWAVPTLLRDDDAGMLKGWSWDQALSEALSVASQNLTGRSWGEEHRPRFTHPLATQFPAWAGLLNPASRPIGGDGDTVLANGLVPSAGPQATYGALSRYVFDVGNWDNSRWVVFHGASGHPASAHYADQNAPWSDCAMVPMLYSWDRIAAEAVTSQELVPALEHHHHHH
B1: in data set [12], the Michaelis constant (Km) was determined as 1.9 mM, the “Vmax (U/mg)” value is on record as 1.7 U/mg and the Inhibition after amounted to 50 mM. In addition, in data set [13], the Km stood at 4.1 mM, the “Vmax (U/mg)” value was determined as 0.05 U/mg and the Inhibition after was found to be 60 mM.

B2: A215Y-H296S: HisVAC double mutant, alanine 215 replaced with Tyr and histidine 296 replaced with Ser (protein)
chain: B1 chain with A215Y, F296S
With B2, in data set [12], the Km is 4 mM, the “Vmax (U/mg)” value is recorded as 2.2 U/mg and the Inhibition after came out at 25 mM. Moreover, in [13], the Michaelis-Menten constant (Km) is 10 mM, the “Vmax (U/mg)” value worked out at 0.66 U/mg and the Inhibition after came to 40 mM.

B3: H417Y: HisVAC mutant, histidine 417 replaced with Tyr (protein)
chain: B1 chain with F296H, H417Y
For B3, in data set [12], the Km was found to be 4.3 mM and the “Vmax (U/mg)” value is given as 14.8 U/mg. Besides, in data set [13], the Km stood at 12.3 mM, the “Vmax (U/mg)” value came to 0.05 U/mg and the Inhibition after is on record as 50 mM.

B4: D416Y-H417Y: HisVAC double mutant, aspartic acid 416 and histidine 417 replaced with Tyr (protein)
chain: B1 chain with F296H, D416Y, H417Y
As to B4, in [12], the Km is 9 mM, the “Vmax (U/mg)” value is given as 1.2 U/mg and the Inhibition after is 12.5 mM. For the same molecule, in [13], the Km is 13.1 mM, the “Vmax (U/mg)” value is given as 4.2 U/mg and the Inhibition after was 50 mM.

B5: D416Y: HisVAC mutant, aspartic acid 416 replaced with Tyr (protein)
chain: B1 chain with F296H, D416Y
For the molecule B5, in [12], the Michaelis constant (Km) was determined as 1.75 mM, the “Vmax (U/mg)” value is on record as 4.9 U/mg and the Inhibition after came out at 25 mM. Also, in [13], the Km was found to be 7.2 mM and the “Vmax (U/mg)” value is reported as 0.66 U/mg.
